Results: ChEMBL document CHEMBL4321783, “Recent Progress in Natural-Product-Inspired Programs Aimed To Address Antibiotic Resistance and Tolerance” (J Med Chem, 2019)
≈ marks a conversion by molar mass, not a printed value. Positions of bridges follow the written chain, without caps; N, C: chain ends. Non-standard residues stand in square brackets, D forms with d. Residues, ends and D or L forms follow the SMILES beside them. *: point of attachment. Phe(3,5-F2) = N[C@@H](Cc1cc(F)cc(F)c1)C(=O)O; Pip(4S-Me) = C[C@H]1CCN[C@H](C(=O)O)C1; Heptenoyl(2E) = CCCC/C=C/C(=O)*; aThr = C[C@H](O)[C@H](N)C(=O)O

What was measured:
[1] = test system: Staphylococcus aureus; experiment: Antibiofilm activity against methicillin-resistant Staphylococcus aureus 1707 assessed as induction of change in gene expression 0.625 uM after 20 hrs by RNA sequencing data based analysis relative to control; format: functional
[2] = test system: Staphylococcus aureus; experiment: Antibiofilm activity against methicillin-resistant Staphylococcus aureus assessed as increase in isdB expression at 0.625 uM after 4 hrs by RT-qPCR analysis relative to control; format: functional
[3] = test system: Staphylococcus aureus; experiment: Antibiofilm activity against […] methicillin-resistant Staphylococcus aureus 2 assessed as induction of biofilm eradication incubated for 24 hrs followed by 3 times wash out with water and subsequent compound addition measured after 24 hrs; format: functional
[4] = test system: Staphylococcus aureus; experiment: Antibiofilm activity against methicillin-resistant Staphylococcus aureus 2 assessed as induction of biofilm eradication incubated for 24 hrs followed by 3 times wash out with water and subsequent compound addition measured after 24 hrs; format: functional
[5] = test system: Pseudomonas aeruginosa; experiment: Growth inhibition of Pseudomonas aeruginosa PA14 after 24 hrs; format: functional, organism-based; details: PA14, 24 h
[6] = test system: Pseudomonas aeruginosa; experiment: Growth inhibition of Pseudomonas aeruginosa PAO1 after 24 hrs; format: functional, organism-based; details: PAO1, 24 h
[7] = test system: Staphylococcus aureus; experiment: Antibacterial activity against Staphylococcus aureus by CLSI protocol based dilution method; format: functional

**Q.** Oc1c(Br)cc(I)c2nc3cc(Cl)c(Cl)cc3nc12 was tested. Which “fold change (FC)” value [1] did it give?
**A.** >=2

**Q.** What about the “fold change (FC)” value [2] of the same compound?
**A.** 22.3

**Q.** CN[C@H](CC(C)C)C(=O)N[C@H]1C(=O)N[C@@H](CC(N)=O)C(=O)N[C@H]2C(=O)N[C@H]3C(=O)N[C@H](C(=O)N[C@H](C(=O)O)c4cc(O)cc(O)c4-c4cc3ccc4O)[C@H](O)c3ccc(c(Cl)c3)Oc3cc2cc(c3O[C@@H]2O[C@H](CO)[C@@H](O)[C@H](O)[C@H]2O[C@H]2C[C@](C)(N)[C@H](O)[C@H](C)O2)Oc2ccc(cc2Cl)[C@H]1O [VANCOMYCIN] was tested. Which MBEC [3] did it give?
**A.** 4 µM

**Q.** What about the MBEC [4] of the same compound?
**A.** >2000 µM

**Q.** With CCCCCC[C@H](CCCCC[C@@H](O)C(N)=O)OC(=O)[C@@H]1CC=CN1C(=O)c1ccccc1O as the compound, how does the IC50 [5] read?
**A.** 0.067 to 0.13 µM

**Q.** And the IC50 [6]?
**A.** 1 µM

**Q.** Which MIC [7] does the source give for CCCC/C=C/C(=O)N[C@@H](Cc1cc(F)cc(F)c1)C(=O)N[C@@H]1C(=O)N2CCC[C@H]2C(=O)N2CC[C@H](C)C[C@H]2C(=O)N[C@@H](C)C(=O)N2CCC[C@H]2C(=O)O[C@H]1C ({Heptenoyl(2E)}-[Phe(3,5-F2)][aThr]P[Pip(4S-Me)]AP; ester 2-C) here?
**A.** 0.0306 µM (≈ 0.024 µg/mL)
